A short description of data set [1]: dissolution in phosphate-buffered solution pH 7.2 (Example 7). Format: physicochemical. Conditions: 50 ml phosphate-buffered solution pH 7.2. The procedure:
For a comparative dissolution study, Control G, consisting of 100 mg of crystalline Drug 2 was prepared. The dissolution of drug was studied by placing one each of the bi-layer tablet and Control G preparation containing an equal amount of Drug 2 in 50 ml of the phosphate-buffered solution of Example 3 (pH 7.2, osmotic pressure 5.3 atm) to simulate an intestinal environment of use.

A short description of data set [2]: dissolution in phosphate buffered saline (PBS) solution (Example 3). The note with it: 35 ml PBS solution. Format: physicochemical. The procedure:
For a comparative dissolution study, Control E, consisting of 35 mg of crystalline Drug 2 was prepared. The dissolution of drug was studied by placing two of the trilayer tablets and Control E each in 35 ml of a phosphate buffered saline (PBS) solution composed of 6 mM KH2PO4, 5 mM NaOH, 60 mM KC1 and 30 mM NaCl. The data for the trilayer tablet is the average of the values for the two tablets tested.

A further data set is described as follows: physchem. The note with it: water.
Data set [3] is described as follows: dissolution in MFD solution (Example 8). The note with it: 40 ml MFD solution. Format: physicochemical. The procedure:
For a comparative dissolution study, Control H, consisting of 111.4 mg of the crystalline drug, was used. The dissolution of drug was studied by placing the bilayer tablet and Control H each in 40 ml of MFD solution.

The nature of data set [4]: dissolution in MFD solution (Example 6). The note with it: 50 ml MFD solution. Format: physicochemical. The procedure:
A Model Fasted Duodenum (MFD) solution was prepared to mimic the chemical environment of the small intestine, the solution comprising a phosphate-buffered saline solution containing 14.7 mM sodium taurocholic acid and 2.8 mM of 1-palmitoyl-2-oleyl-sn-glycero-3-phosphocholine with a pH of 6.5.
The data for the tri-layer tablet is the average of the values for the two tablets tested.

Converted amounts (≈) assume the structure as drawn.

These results are taken from patent publication EP1027888B1, “Osmotic system for delivery of solid amorphous dispersions of drugs” (Pfizer Products Inc., priority 1999, dated 2000).

A word on the solubility: it is the dissolved amount per volume that the medium holds. Low readings indicate little dissolved substance, high ones much dissolved substance. As for `O=C(N[C@@H](Cc1ccccc1)[C@@H](O)C(=O)N1C[C@@H](O)[C@@H](O)C1)c1cc2cc(Cl)ccc2[nH]1` [Drug 2], the figures for the MDC in data set [1] and in data set [2] were 77 µg/mL and 171 µg/mL, respectively. Further, the “[Drug]” value in data set [1] (time 0 hr) is on record as 0 µg/mL; in data set [1] (time 1 hr), 59 µg/mL; in data set [1] (time 2 hr), 72 µg/mL; in data set [1] (time 4 hr) it was 72 µg/mL; in data set [1] (time 8 hr), 77 µg/mL; in data set [1] (time 12 hr), 71 µg/mL. Moreover, the “[Drug]” value in data set [1] (time 18 hr) is 71 µg/mL; in data set [1] (time 24 hr), 75 µg/mL; in data set [2] (time 0.3 hr), 99 µg/mL; in data set [2] (time 1.5 hr) it was 148 µg/mL; in data set [2] (time 2.0 hr), 165 µg/mL; in data set [2] (time 3.0 hr) it was 137 µg/mL. Also, the “[Drug]” value in data set [2] (time 4.0 hr) is 142 µg/mL; in data set [2] (time 12.0 hr), 157 µg/mL; in data set [2] (time 20.0 hr), 171 µg/mL. The solubility in the data set “physchem” was determined as 80 µg/mL (≈ 175 µM).

As a reminder, the AUC is the area under the concentration-time curve, a measure of exposure. With `CN[C@H]1CC[C@@H](c2ccc(Cl)c(Cl)c2)c2ccccc21` [sertraline], the MDC in data set [3] amounted to 401 µg/mL. Further, the “[Drug]” value amounted to 0 µg/mL in data set [3] (time 0 hr); 278 µg/mL in data set [3] (time 0.2 hr); 401 µg/mL in data set [3] (time 0.3 hr); 341 µg/mL in data set [3] (time 0.7 hr); 217 µg/mL in data set [3] (time 1.5 hr); 188 µg/mL in data set [3] (time 2 hr). Also, the “[Drug]” value was 168 µg/mL in data set [3] (time 3 hr); 152 µg/mL in data set [3] (time 4 hr); 160 µg/mL in data set [3] (time 6 hr); 137 µg/mL in data set [3] (time 10 hr); 135 µg/mL in data set [3] (time 14 hr); 191 µg/mL in data set [3] (time 24 hr). Also, the AUC in data set [3] (up to 0 hr) was 0 µg·min/mL; in data set [3] (up to 0.2 hr), 830 µg·min/mL; in data set [3] (up to 0.3 hr), 4,230 min·µg/mL; in data set [3] (up to 0.7 hr) it was 11,650 min·µg/mL; in data set [3] (up to 1.5 hr) it was 25,610 min·µg/mL; in data set [3] (up to 2 hr) it was 31,700 min·µg/mL. For the same molecule, the area under the curve (AUC) is given as 42,400 min·µg/mL in data set [3] (up to 3 hr); 52,000 min·µg/mL in data set [3] (up to 4 hr); 70,640 min·µg/mL in data set [3] (up to 6 hr); 106,200 min·µg/mL in data set [3] (up to 10 hr); 122,500 min·µg/mL in data set [3] (up to 14 hr).

“[R-(R*,S*)]-5-chloro-N-[2-hydroxy-3-[methoxymethylamino)-3-1-(phenylmethyl)propyl]propyl]-1H-indole-2-carboxamide [Drug 1]”: the MDC in data set [4] is reported as 16 µg/mL. For the same molecule, the “[Drug]” value in data set [4] (time 0 hr) is 0 µg/mL; in data set [4] (time 2 hr), 13 µg/mL; in data set [4] (time 4 hr), 16 µg/mL; in data set [4] (time 8 hr), 13 µg/mL; in data set [4] (time 12 hr) it was 15 µg/mL; in data set [4] (time 20 hr), 12 µg/mL. Further, in data set [4] (time 24 hr), the “[Drug]” value was 11 µg/mL.
